Laboratory results from patent US8741897B2, “Glucocorticoid mimetics, methods of making them, pharmaceutical compositions and uses thereof” (Boehringer Ingelheim Pharmaceuticals Inc., priority 2003, dated 2014).

What follows are molecules tested on glucocorticoid receptor function (assay: one or more of the above assays (GR binding and glucocorticoid receptor cell assays: aromatase, IL-6, TAT, MMTV-Luc, IL-8, ICAM-Luc)). Details: assay not specified per compound.
Type: cell-based
Procedure: B. Glucocorticoid Receptor Cell Assays
1. Induction of Aromatase in Fibroblasts (Cell Assay for Transactivation)
Dexamethasone, a synthetic ligand to the glucocorticoid receptor (GR), induces expression of aromatase in human foreskin fibroblast cells. The activity of aromatase is measured by the conversion of testosterone to estradiol in culture media.
On the day of the experiment, the media in the wells is replaced with fresh media. Cells are treated with test compounds to final concentrations of 10^−5 M to 10^−8 M, and testosterone to a final concentration of 300 ng/mL. Each well has a total volume of 100 μL. Samples are made in duplicates. Control wells include: (a) wells that receive testosterone only, and (b) wells that receive testosterone plus 2 μM of dexamethasone to provide maximum induction of aromatase. Plates are incubated at 37° C. overnight (15 to 18 hours), and supernatants are harvested at the end of incubation. […] The amount of estradiol is inversely proportional to the ELISA signals in each well. The extent of aromatase induction by test compounds is expressed as a relative percentage to dexamethasone. EC50 values of test compounds are derived by non-linear curve fitting.
2. Inhibition of IL-6 Production in Fibroblasts (Cell Assay for Transrepression)
Human foreskin fibroblast cells produce IL-6 in response to stimulation by proinflammatory cytokine IL-1.
On the next day, media in the wells is replaced with fresh media. Cells are treated with IL-1 (rhIL-1α, R&D Systems Cat. No. 200-LA) to a final concentration of 1 ng/mL, and with test compounds to final concentrations of 10^−5 M to 10^−8 M, in a total volume of 200 μL per well. Samples are done in duplicates. […] Positive control wells receive IL-1 only and represent maximum (or 100%) amount of IL-6 production. Plates are incubated at 37° C. overnight (15 to 18 hours), and supernatants are harvested at the end of incubation. IL-6 levels in the supernatants are determined by the ELISA kits for IL-6 (MedSystems Diagnostics GmbH, Vienna, Austria, Cat. No. BMS213TEN) according to manufacture's instructions. The extent of inhibition of IL-6 by test compounds is expressed in percentage relative to positive controls. IC50 values of test compounds are derived by non-linear curve fitting.
Evaluation of agonist or antagonist activity of compounds binding to the glucocorticoid receptor may be determined by any of the assays.
3. Modulation of Tyrosine Aminotransferase (TAT) Induction in Rat Hepatoma Cells
Testing of compounds for agonist or antagonist activity in induction of tyrosine aminotransferase (TAT) in rat hepatoma cells.
H4-II-E-C3 cells were incubated overnight in 96 well plates (20,000 cells/100 μL/well) in MEM medium containing 10% heat inactivated FBS and 1% nonessential amino acids. On the next day, cells were stimulated with the indicated concentrations of dexamethasone or test compound (dissolved in DMSO, final DMSO concentration 0.2%) for 18 hours. Control cells were treated with 0.2% DMSO. After 18 hours, the cells were lysed in a buffer containing 0.1% Triton X-100 and the TAT activity was measured in a photometric assay using tyrosine and alpha-ketoglutarate as substrates.
For measuring antagonist activity, the hepatoma cells were pre-stimulated by addition of dexamethasone (concentration ranges from 3×10^−9 M to 3×10^−8 M) shortly before the test compound was applied to the cells.
4. Modulation of MMTV-Luc Induction in HeLa Cells
Testing of compounds for agonist or antagonist activity in stimulation of MMTV-(mouse mammary tumor virus) promoter in HeLa cells.
Cells were cultured overnight in DMEM medium without phenol red, supplemented with 3% CCS (charcoal treated calf serum) and then transferred to 96 well plates (15,000 cells/100 μL/well).

SMILES	activity as agonists of the glucocorticoid receptor function in one or more of the above assays
CC(C)(CC(O)(Cc1cc2cc(-c3cccc(C#N)c3)ccc2[nH]1)C(F)(F)F)c1cc(F)cc2c1OCC2 (centres unmarked) [3-{2-[4-(5-Fluoro-2,3-dihydrobenzofuran-7-yl)-2-hydroxy-4-methyl-2-trifluoromethylpentyl]-1H-indol-5-yl}benzonitrile]	potent agonists
CC(C)(CC(O)(Cc1cc2cnccc2[nH]1)C(F)(F)F)c1cc(-c2cccnc2)ccc1O (centres unmarked) [4-Pyridin-3-yl-2-[4,4,4-trifluoro-3-hydroxy-1,1-dimethyl-3-(1H-pyrrolo[3,2-c]pyridin-2-ylmethyl)butyl]phenol]	potent agonists
CC(C)(CC(O)(Cc1cc2cc(N3CCOCC3)ncc2[nH]1)C(F)(F)F)c1cccc(CN2CCOCC2)c1 (centres unmarked) [1,1,1-Trifluoro-4-methyl-4-(3-morpholin-4-ylmethylphenyl)-2-(5-morpholin-4-yl-1H-pyrrolo[2,3-c]pyridin-2-ylmethyl)pentan-2-ol]	potent agonists
CC(C)(CC(O)(Cc1cc2cc(-c3ccncc3)ccc2[nH]1)C(F)(F)F)c1cc(F)cc2c1OCC2 (centres unmarked) [1,1,1-Trifluoro-4-(5-fluoro-2,3-dihydrobenzofuran-7-yl)-4-methyl-2-(5-pyridin-4-yl-1H-indol-2-ylmethyl)pentan-2-ol]	potent agonists
CC(=O)c1ccc2[nH]c(CC(O)(CC(C)(C)c3cc(Cl)cc4c3OCC4)C(F)(F)F)cc2n1 (centres unmarked) [1-{2-[4-(5-Chloro-2,3-dihydrobenzofuran-7-yl)-2-hydroxy-4-methyl-2-trifluoromethylpentyl]-1H-pyrrolo[3,2-b]pyridin-5-yl}ethanone]	potent agonists
COc1ccc(-c2cncnc2)cc1C(C)(C)CC(O)(Cc1cc2cnccc2[nH]1)C(F)(F)F (centres unmarked) [1,1,1-Trifluoro-4-(2-methoxy-5-pyrimidin-5-ylphenyl)-4-methyl-2-(1H-pyrrolo[3,2-c]pyridin-2-ylmethyl)pentan-2-ol]	potent agonists
CC(C)(CC(O)(Cc1cc2cc(N3CCOCC3)ncc2[nH]1)C(F)(F)F)c1cccc(F)c1 (centres unmarked) [1,1,1-Trifluoro-4-(3-fluorophenyl)-4-methyl-2-(5-morpholin-4-yl-1H-pyrrolo[2,3-c]pyridin-2-ylmethyl)pentan-2-ol]	potent agonists
CC(C)(CC(O)(Cn1ccc2c1CCCC2=O)C(F)(F)F)c1cc(-c2cncnc2)cc2c1OCC2 (centres unmarked) [1-[2-Hydroxy-4-methyl-4-(5-pyrimidin-5-yl-2,3-dihydrobenzofuran-7-yl)-2-trifluoromethylpentyl]-1,5,6,7-tetrahydroindol-4-one]	agonists
Cc1nccc2[nH]c(CC(O)(CC(C)(C)c3ccc(F)cc3O)C(F)(F)F)cc12 (centres unmarked) [5-Fluoro-2-[4,4,4-trifluoro-3-hydroxy-1,1-dimethyl-3-(4-methyl-1H-pyrrolo[3,2-c]pyridin-2-ylmethyl)butyl]phenol]	potent agonists
CC(C)(CC(O)(Cc1cc2cnccc2[nH]1)C1CC1)c1cc(Cl)cc2c1OCC2 (centres unmarked) [4-(5-Chloro-2,3-dihydrobenzofuran-7-yl)-2-cyclopropyl-4-methyl-1-(1H-pyrrolo[3,2-c]pyridin-2-yl)pentan-2-ol]	agonists
CC(C)(CC(O)(Cc1cc2nc(N3CCCC3)ncc2[nH]1)C(F)(F)F)c1cc(F)ccc1O (centres unmarked) [4-Fluoro-2-[4,4,4-trifluoro-3-hydroxy-1,1-dimethyl-3-(2-pyrrolidin-1-yl-5H-pyrrolo[3,2-d]pyrimidin-6-ylmethyl)butyl]phenol]	potent agonists
C[S+]([O-])c1ccc2[nH]c(CC(O)(CC(C)(C)c3cc(F)cc4c3OCC4)C(F)(F)F)cc2c1 (centres unmarked) [1,1,1-Trifluoro-4-(5-fluoro-2,3-dihydrobenzofuran-7-yl)-2-(5-methanesulfinyl-1H-indol-2-ylmethyl)-4-methylpentan-2-ol]	potent agonists
Cc1ccc(F)cc1C(C)(C)CC(O)(Cc1cc2ccncc2[nH]1)C(C)(C)C (centres unmarked) [5-(5-Fluoro-2-methylphenyl)-2,2,5-trimethyl-3-(1H-pyrrolo[2,3-c]pyridin-2-ylmethyl)hexan-3-ol]	agonists
COc1ccc(F)cc1C(C)(C)CC(O)(Cc1cc2cnccc2[nH]1)C1CC1 (centres unmarked) [2-Cyclopropyl-4-(5-fluoro-2-methoxyphenyl)-4-methyl-1-(1H-pyrrolo[3,2-c]pyridin-2-yl)pentan-2-ol]	agonists
CC(C)(CC(O)(Cc1cc2cc(-c3ccccc3)ncc2[nH]1)C(F)(F)F)c1cccc(CN2CCOCC2)c1 (centres unmarked) [1,1,1-Trifluoro-4-methyl-4-(3-morpholin-4-ylmethylphenyl)-2-(5-phenyl-1H-pyrrolo[2,3-c]pyridin-2-ylmethyl)pentan-2-ol]	potent agonists
Cc1c(CC(O)(CC(C)(C)c2cc(Cl)cc3c2OCC3)C(C)C)[nH]c2cnccc12 (centres unmarked) [5-(5-Chloro-2,3-dihydrobenzofuran-7-yl)-2,5-dimethyl-3-(3-methyl-1H-pyrrolo[2,3-c]pyridin-2-ylmethyl)hexan-3-ol]	agonists
COc1ccc(-c2cccnc2)cc1C(C)(C)CC(O)(Cc1cc2cnccc2[nH]1)C(F)(F)F (centres unmarked) [1,1,1-Trifluoro-4-(2-methoxy-5-pyridin-3-ylphenyl)-4-methyl-2-(1H-pyrrolo[3,2-c]pyridin-2-ylmethyl)pentan-2-ol]	potent agonists
COc1ccc(F)cc1C(C)(C)CC(O)(Cc1[nH]c2ccncc2c1Cl)C(F)(F)F (centres unmarked) [2-(3-Chloro-1H-pyrrolo[3,2-c]pyridin-2-ylmethyl)-1,1,1-trifluoro-4-(5-fluoro-2-methoxyphenyl)-4-methylpentan-2-ol]	potent agonists
COc1ccc(-c2ccccc2)cc1C(C)(C)CC(O)(Cc1cc2cc(N3CCCCC3)ncc2[nH]1)C(F)(F)F (centres unmarked) [1,1,1-Trifluoro-4-(4-methoxybiphenyl-3-yl)-4-methyl-2-(5-piperidin-1-yl-1H-pyrrolo[2,3-c]pyridin-2-ylmethyl)pentan-2-ol]	potent agonists
CC(C)(CC(O)(Cc1cc2nc(CO)ccc2[nH]1)C(F)(F)F)c1cc(Cl)cc2c1OCC2 (centres unmarked) [4-(5-Chloro-2,3-dihydrobenzofuran-7-yl)-1,1,1-trifluoro-2-(5-hydroxymethyl-1H-pyrrolo[3,2-b]pyridin-2-ylmethyl)-4-methylpentan-2-ol]	potent agonists
CC(CO)(CC(O)(Cc1ccnc2ccccc12)C(F)(F)F)c1ccccc1 (centres unmarked) [5,5,5-Trifluoro-2-methyl-2-phenyl-4-quinolin-4-ylmethylpentane-1,4-diol]	agonists
COc1ccc(-c2ccccc2C#N)cc1C(C)(C)CC(O)(Cc1cc2cc(N3CCOCC3)ncc2[nH]1)C(F)(F)F (centres unmarked) [4′-Methoxy-3′-[4,4,4-trifluoro-3-hydroxy-1,1-dimethyl-3-(5-morpholin-4-yl-1 H-pyrrolo[2,3-c]pyridin-2-ylmethyl)butyl]biphenyl-2-carbonitrile]	potent agonists
CC(C)(CC(O)(Cn1ccc2c1CCCC2=O)C(F)(F)F)c1cc(-c2cncnc2)ccc1O (centres unmarked) [1-[2-Hydroxy-4-(2-hydroxy-5-pyrimidin-5-ylphenyl)-4-methyl-2-trifluoromethylpentyl]-1,5,6,7-tetrahydroindol-4-one]	agonists
